In US10426758B2, “Sibiriline derivatives for use for preventing and/or treating disorders associated with cellular necroptosis” (Institut National de la Sante et de la Recherche Medicale …, priority 2015, dated 2019):

Legend:
L929sAhFas [1] = assay: Necroptosis induced by FasL + zVAD-fmk in L929sAhFas, intracellular ATP level; type: cell-based; settings: Mus musculus
Description: (§1) Besides, the IC50 of compound 3, compound 6 and necrostatin-1 (Nec-1) were determined in mouse or human cellular models of necroptosis induced by FasL+zVAD-fmk (a pan-caspase inhibitor) or TNF, and by using two cytotoxic assays (MTS Cell Proliferation assay or intracellular ATP level). As shown in the table below, compound 3 and compound 6 inhibit TNF-α or FasL-induced necroptosis with IC50 almost similar to those obtained with Nec-1.

L929sAhFas [2] = assay: Necroptosis induced by FasL + zVAD-fmk in L929sAhFas, MTS Cell Proliferation assay; type: cell-based; settings: Mus musculus
Description: as §1

Jurkat Fadd−/− [3] = assay: Necroptosis induced by TNF in Jurkat Fadd−/−, intracellular ATP level; type: cell-based; settings: Homo sapiens
Description: as §1

Jurkat Fadd−/− [4] = assay: Necroptosis induced by TNF in Jurkat Fadd−/−, MTS Cell Proliferation assay; type: cell-based; settings: Homo sapiens
Description: as §1

[5] = tested on: cytochrome P450 CYP1A enzymes in HepG2 cells; assay: Ethoxyresorufin O-deethylase (EROD) activity in HepG2 cells; type: in vitro ADME, human; settings: 10 μM, 24 hours
Description: EROD activity corresponds to the O-deethylation of ethoxyresorufin and is mainly supported by cytochrome P450 CYP1A enzymes in HepG2 cells. Induction of CYP1A is mediated through the binding of xenobiotics to a cytosolic aryl hydrocarbon receptor AhR.
Human liver cancer cell lines HepG2 were treated with 10 μM of Sib, Nec-1 or Nec-1s for 24 hours. After treatment, HepG2 cells were incubated in PBS containing 5 mM ethoxyresorufin and kinetic reading was performed at 37° C. with spectrofluorometer (SpectraMax Gemini SX) over a 15 min period.

[6] = tested on: murine model of acute hepatitis (concanavalin A-induced hepatitis); assay: Concanavalin A-induced acute hepatitis in mice; type: in vivo, C57Bl/6 WT mice; settings: Nec-1s 6.25 mg/kg intraperitoneal 1 hour before 12 mg/kg Con A for 10 h
Description: We use a murine model of acute hepatitis (concanavalin A-induced hepatitis) that depends on necroptosis induction (Jouan-Lanhouet et al. Semin. Cell. Dev. Biol. 2014, 35, 2-13). Sib is diluted in 50% PBS/50% DMSO.
C57Bl/6 WT mice were pre-treated or not with 3, 6 or 9 mg/kg Sib or 6.25 mg/kg Nec-1s injected by intraperitoneal route 1 hour before treatment or not with 12 mg/kg Con A for 10 h (intravenous route) (50% PBS/50% DMSO, n=5; 50% PBS/50% DMSO+Con A, n=5; 3 mg/kg Sib+Con A, n=5; 6 mg/kg Sib+Con A, n=5; 9 mg/kg Sib+Con A, n=5; 6.25 mg/kg Nec-1s+Con A, n=5).

[7] = tested on: Jurkat FADD-deficient I 2.1 cell line; assay: Cell-based screening: TNF-α-induced necroptosis in Jurkat FADD-deficient cells, MTS viability assay; design: species or system human; settings: for EC50: Homo sapiens, Jurkat, necroptosis induced by 10 ng/ml TNF-α, 24 hours, MTS viability; for inhibition of necroptosis induced by TNF-α (figure legend): human T lymphocyte, Jurkat FADD deficient cell line
Excerpt: TNF-α can induce necroptosis in Jurkat cells (human T lymphocytes) when FADD is deleted. This model was used to screen various libraries of chemical compounds for characterization of new inhibitors of cellular necroptosis. Details on this cell-based assay can be found in (Miao and Degterev, Methods Mol. Biol. 2009, 559, 79-93). The Jurkat FADD-deficient I 2.1 cell line used was purchased from ATCC and was maintained in RPMI 1640 medium (Gibco) containing Glutamax and 15% fetal calf serum (Life Technology). Necroptosis was induced by addition of 10 ng/ml of human recombinant TNF-α (Life Technology). Necrostatin-1 (Nec-1, Enzo Life Sciences) was used as model necroptosis inhibitor. Cells were maintained in 75 cm^2 flask and passed every 2 or 3 days. Chemical collections analysed were formatted in 96-well plates with 80 molecules per plates at 10 mM in 100% DMSO. For each collection plate, 2 cell plates were seeded (one necroptosis-induced with TNF-α and the other without TNF-α). Cells were seeded at 20000 cells/well, in 40 μl of medium, in a 96-well clear, flat bottom plate (CytoOne, Starlab) before treatment. Then, 40 μl of medium with or without TNF-α at 25 ng/ml were added to all wells in the corresponding plate. Immediately after TNF-α addition, 20 μl of diluted compound at 50 μM were added to the plates. Final concentration of each chemical compound was 10 μM at 0.1% DMSO. Four positives (Nec-1 at 10 μM final) and four negative (DMSO) controls were used in each plate to validate the assay. Cells were incubated at 37° C., 5% CO2 for 24 hours before performing MTS viability assay, described hereafter. Compounds were diluted before to treat cells. Liquid handling was performed using the Nimbus Microlab liquid handler (Hamilton Robotics) under microbiological safety workbench. The 10 mM compounds were diluted at 50 μM directly in cell medium.

[8] = biological target: T1, Human RIPK1 full length GST-tagged (Homo sapiens, UniProt Q13546); assay: RIPK1 autophosphorylation assay; type: biochemical; settings: radioactively labeled RIPK1, [γ-32P] ATP, 30 minutes at 30° C.
T1 construct: Human RIPK1 full length GST-tagged; made in house; host or cells: Sf9 insect cells (Bac-to-Bac baculovirus system)
T1 sequence (Q13546 1-671): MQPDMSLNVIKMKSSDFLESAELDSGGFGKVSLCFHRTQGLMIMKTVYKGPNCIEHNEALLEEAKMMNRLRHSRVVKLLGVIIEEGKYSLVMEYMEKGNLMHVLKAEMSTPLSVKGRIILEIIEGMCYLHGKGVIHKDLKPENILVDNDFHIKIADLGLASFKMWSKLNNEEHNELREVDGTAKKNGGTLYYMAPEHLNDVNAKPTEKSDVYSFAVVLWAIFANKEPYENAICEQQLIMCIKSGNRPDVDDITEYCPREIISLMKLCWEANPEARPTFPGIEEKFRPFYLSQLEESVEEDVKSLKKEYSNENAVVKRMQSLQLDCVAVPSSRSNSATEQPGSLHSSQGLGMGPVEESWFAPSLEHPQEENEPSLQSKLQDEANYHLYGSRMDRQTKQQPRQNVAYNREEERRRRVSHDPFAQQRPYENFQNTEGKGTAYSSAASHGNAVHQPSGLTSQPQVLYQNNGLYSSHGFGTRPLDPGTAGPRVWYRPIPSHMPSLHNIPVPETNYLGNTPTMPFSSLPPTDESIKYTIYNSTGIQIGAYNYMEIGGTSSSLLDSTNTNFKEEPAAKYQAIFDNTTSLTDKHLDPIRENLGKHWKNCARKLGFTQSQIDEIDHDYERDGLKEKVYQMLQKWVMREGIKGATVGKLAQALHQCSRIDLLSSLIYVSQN
Description: Human RIPK1 full length GST-tagged was baculovirally expressed in Sf9 cells according to manufacturer's instructions (Bac-to-Bac expression system, Invitrogen) and purified using gluthation-sepharose beads (GE Healthcare). The elution was made in 50 mM Tris-HCl, pH 8.0 buffer supplemented with 30 mM reduced gluthatione (Sigma). The protocol used to detect the enzymatic activity is adapted from Miao and Degterev (Methods Mol. Biol. 2009, 559, 79-93). Kinase reaction was initiated mixing 5 μl of eluted RIPK1, 5 μl of 3× kinase reaction buffer (5 mM MOPS pH 7.2, 2.5 mM β-glycerophosphate, 4 mM MgCl2, 2.5 mM MnCl2, 1 mM EGTA, 0.4 mM EDTA, 50 μg/ml BSA, 0.05 mM DTT), 2 μl H2O and 3 μl of the tested molecule. The mixture was kept on ice for 10 minutes. During the incubation, the ATP solution was prepared by mixing 5 μl of 3× kinase reaction buffer, 4 μl H2O, 6 μl cold ATP at 150 μM and 2 μCi of [γ-^32P] ATP. Add the ATP solution and the tested inhibitor to the kinase and incubate for 30 minutes at 30° C. To stop the enzymatic reaction, 5 μl of loading buffer were added and solution was heated for 3 minutes at 95° C. 25 μl of each reaction were loaded per well in pre-cast NuPage 12% Bis-Tris gel (Life Technology). Autophosphorylated RIPK1 band was visualized on radiographic film after 6 h exposition at −80° C.

Structure (SMILES) | EC50 [7] | inhibition of necroptosis induced by TNF-α (figure legend) [7] | other results
CN1C(=O)C(Cc2c[nH]c3ccccc23)NC1=S (centres unmarked) [Nec-1, necrostatin-1, reference compound] | – | – | IC50 (L929sAhFas [1]): 10 µM; IC50 (L929sAhFas [2]): 10 µM; IC50 (Jurkat Fadd−/− [3]): 1.3 µM; IC50 (Jurkat Fadd−/− [4]): 1.3 µM
CN1C(=O)NC(Cc2c[nH]c3c(Cl)cccc23)C1=O (centres unmarked) [Nec-1s, reference compound] | – | – | induction of EROD activity [5]: do not induce EROD activity; AST and ALT levels and protection from Con A-induced hepatitis [6]: has a tendency to decrease AST and ALT levels and to protect mice from Con A-induced hepatitis
COc1ccc(-c2cc3cccnc3[nH]2)cc1 [compound 1, 2-(4-methoxyphenyl)-1H-pyrrolo[2,3-b]pyridine] | 0.4 µM | dose-dependent inhibition | –
CCOc1ccc(-c2cc3cccnc3[nH]2)cc1 [compound 3, 2-(4-ethoxyphenyl)-1H-pyrrolo[2,3-b]pyridine] | 0.7 µM | dose-dependent inhibition | IC50 (L929sAhFas [1]): 2.5 µM; IC50 (Jurkat Fadd−/− [3]): 1.3 µM; IC50 (Jurkat Fadd−/− [4]): 2.7 µM; inhibition of RIPK1 autophosphorylation [8]: dose-dependent inhibition
CC(C)Oc1ccc(-c2cc3cccnc3[nH]2)cc1 [compound 4, 2-(4-isopropoxyphenyl)-1H-pyrrolo[2,3-b)pyridine] | 0.9 µM | dose-dependent inhibition | –
c1cnc2[nH]c(-c3ccc4c(c3)OCCO4)cc2c1 [compound 5, 2-(1,4-benzodioxanyl)-1H-pyrrolo[2,3-b]pyridine] | 1.4 µM | – | –
c1cnc2[nH]c(-c3ccc4c(c3)OCO4)cc2c1 [compound 6] | 1.8 µM | – | IC50 (L929sAhFas [2]): 10 µM; IC50 (Jurkat Fadd−/− [3]): 4 µM; IC50 (Jurkat Fadd−/− [4]): 7 µM
CCOc1ccc(-c2cc3c(Cl)ccnc3[nH]2)cc1 [compound 7, 4-chloro-2-(4-ethoxyphenyl)-1H-pyrrolo[2,3-b]pyridine] | 2 µM | dose-dependent inhibition | inhibition of RIPK1 autophosphorylation [8]: dose-dependent inhibition
CCOc1ccc(-c2cc3cc(-c4ccc(OC)c(OC)c4)cnc3[nH]2)cc1 [compound 8, 5-(3,4-dimethoxyphenyl)-2-(4-ethoxyphenyl)-1H-pyrrolo[2,3-b]pyridine] | 1.5 µM | dose-dependent inhibition | –
c1cnc2[nH]c(-c3ccc(OC4CCCC4)cc3)cc2c1 [compound 9, 2-(4-(cyclopentyloxy)phenyl)-1H-pyrrolo[2,3-b]pyridine] | 3 µM | dose-dependent inhibition | –
CCOc1ccc(-c2cc3cc(Br)cnc3[nH]2)cc1 [compound 10, 5-bromo-2-(4-ethoxyphenyl)-1H-pyrrolo[2,3-b]pyridine] | – | slight dose-dependent inhibition | –
